The text below walks through data of patent US11919906B2, “Crystal form of ACP-196 and method of treatment thereof” (Hangzhou SoliPharma Co., Ltd., priority 2016, dated 2024).

Data set [1] is described as follows: Isothermal sorption (dynamic vapor sorption), hygroscopicity. To be noted: between 30 to 80% RH. In kind it is physicochemical. The procedure: Dynamic vapor sorption data and isothermal sorption data were collected on TA Instruments Q5000 TGA. Method: A sample of 1 to 10 mg was placed in a platinum pan; the weight change of the sample during the change in relative humidity from 0% to 80% to 0% was measured.

Data set [2] can be described thus: Thermogravimetric analysis (TGA), weight loss / residual solvents. Type of data set: physicochemical. Conditions: before 150° C. On the procedure: Thermogravimetric analysis data were collected on TA instruments Q500 TGA. Method: A sample of 5 to 15 mg was placed in a platinum pan, using High Resolution™, the sample was heated from room temperature to 350° C. at a heating rate of 10° C./min under the protection of dry nitrogen purge at 40 mL/min.

Turning to `CC#CC(=O)N1CCC[C@H]1c1nc(-c2ccc(C(=O)Nc3ccccn3)cc2)c2c(N)nccn12` [ACP-196 Form 1], the “weight change (isothermal sorption plot)” value in data set [1] was determined as 0.8%.
Consider `CC#CC(=O)N1CCC[C@H]1c1nc(-c2ccc(C(=O)Nc3ccccn3)cc2)c2c(N)nccn12` [amorphous ACP-196], for which the “weight loss (TGA)” value in data set [2] is listed as 11.1%. Moreover, the “weight change (isothermal sorption plot)” value in data set [1] is given as 5.5%.
